Data reported in patent publication US10919885B2, “Compounds and uses thereof” (Yumanity Therapeutics, Inc., priority 2018, dated 2021).
pIC50: −log10 of the molar value. Where a name gives a salt, the structure may show the parent alone.

Assays:
human SCD1 = human SCD1 (Homo sapiens (Human), UniProt O00767); experiment: Yeast growth assay, strain expressing human SCD1 as the sole desaturase (reduced growth as surrogate for SCD inhibition); format: cell-based; conditions: yeast with OLE1 deleted expressing human SCD1 from a plasmid; growth read as OD600 after 40 h at 30° C.; top drug concentration 33.3 μM
In short: (§1)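 Yeast lacking OLE1 depend on plasmid-borne human SCD1 or SCD5 and are tested in SD-Ura medium without oleic/palmitoleic acid or Tween.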

human SCD5 = human SCD5 (Homo sapiens (Human), UniProt Q86SK9); experiment: Yeast growth assay, strain expressing human SCD5 as the sole desaturase (reduced growth as surrogate for SCD inhibition); format: cell-based; conditions: yeast with OLE1 deleted expressing human SCD5 from a plasmid; growth read as OD600 after 40 h at 30° C.; top drug concentration 33.3 μM
In short: as §1

Chain of human SCD5 (Q86SK9 whole entry): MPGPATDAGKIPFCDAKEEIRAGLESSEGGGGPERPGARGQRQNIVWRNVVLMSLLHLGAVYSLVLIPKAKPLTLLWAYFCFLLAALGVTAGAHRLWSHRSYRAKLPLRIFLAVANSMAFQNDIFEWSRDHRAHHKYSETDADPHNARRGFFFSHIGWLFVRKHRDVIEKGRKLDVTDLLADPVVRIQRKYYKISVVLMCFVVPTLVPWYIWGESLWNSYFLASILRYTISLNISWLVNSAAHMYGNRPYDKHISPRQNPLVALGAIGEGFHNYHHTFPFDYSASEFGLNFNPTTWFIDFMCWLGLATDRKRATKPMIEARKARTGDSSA
Chain of human SCD1 (O00767 whole entry): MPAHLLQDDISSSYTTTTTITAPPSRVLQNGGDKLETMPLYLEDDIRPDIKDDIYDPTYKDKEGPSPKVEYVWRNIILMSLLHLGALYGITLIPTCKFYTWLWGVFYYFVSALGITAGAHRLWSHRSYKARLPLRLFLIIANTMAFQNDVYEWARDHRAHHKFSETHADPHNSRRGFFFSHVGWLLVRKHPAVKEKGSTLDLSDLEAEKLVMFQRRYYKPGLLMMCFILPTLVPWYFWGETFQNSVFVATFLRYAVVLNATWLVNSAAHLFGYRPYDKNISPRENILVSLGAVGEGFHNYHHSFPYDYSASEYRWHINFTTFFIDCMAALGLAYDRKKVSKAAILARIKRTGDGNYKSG

pIC50 (human SCD1)	pIC50 (human SCD5)	Compound
< 4.35	< 4.35	N#Cc1cccc(Cn2cc(NC(=O)c3cc(-c4ccccc4)on3)cn2)c1 [Compound 132]
< 4.35	< 4.35	COc1ccccc1-c1cc(C(=O)N2CCC(c3ccccc3)CC2)no1 [Compound 320]
< 4.35	< 4.35	O=C(Nc1cnn(Cc2cc(F)ccc2C(F)(F)F)c1)c1cc(-c2ccccn2)on1 [Compound 77]
< 4.35	5.21	O=C(c1cc(-c2ccc3c(c2)OCO3)on1)N1CCCC1c1ccccc1C(F)F (centres unmarked) [Compound 331]
< 4.35	< 4.35	Cc1nnc(-c2cc(C(=O)Nc3cnn(Cc4cccc(F)c4)c3)no2)s1 [Compound 175]
6.01	< 4.35	N#Cc1ccc(-c2cc(C(=O)Nc3cnn(Cc4ccccc4)c3)no2)cc1 [Compound 128]
< 4.35	< 4.35	Cc1cnoc1C1CCCN1C(=O)c1cc(-c2ccc3c(c2)OCO3)on1 (centres unmarked) [Compound 439]
6.68	< 4.35	O=C(c1cc(-c2ccccc2)on1)N1CCN(c2cccc(F)c2)CC1 [Compound 294]
5.12	< 4.35	NC(=O)c1cc(C(=O)N2CCC(c3ccccc3)C2)no1 (centres unmarked) [Compound 348]
< 4.35	< 4.35	CNC(=O)c1cccc(-c2cc(C(=O)N3CCC(c4ccccc4)CC3)no2)c1 [Compound 303]
< 4.35	5.05	O=C(c1cc(-c2ccccc2)on1)N1CCCC1Cc1ccccc1 (centres unmarked) [Compound 436]
< 4.35	< 4.35	O=C(Nc1cnn(Cc2ccccc2Cl)c1)c1cc(-c2cccc3cnn(C4COC4)c23)on1 [Compound 93]
< 4.35	< 4.35	O=C(c1cc(-c2ccc3nccnc3c2)on1)N1CCC[C@H]1c1ccccc1 [Compound 450]
5.38	5.28	CNC(=O)c1cc(C(=O)N2CCC(c3ccccc3)C2)no1 (centres unmarked) [Compound 347]
< 4.35	< 4.35	O=C(c1cc(-c2ccccc2)on1)N1CCC(c2ccc(F)cc2)C1 (centres unmarked) [Compound 334]
4.59	< 4.35	O=C(Nc1cnn(Cc2ccc(F)c(F)c2)c1)c1cc(-c2ccccn2)on1 [Compound 61]
< 4.35	< 4.35	Cc1nn(C)c2cc(-c3cc(C(=O)N4CCCC4c4cccnn4)no3)ccc12 (centres unmarked) [Compound 462]
< 4.35	< 4.35	O=C(Nc1cnn(CCc2ccccc2)c1)c1cc(-c2ccco2)on1 [Compound 24]
< 4.35	< 4.35	CSCC(c1ccccc1)n1cc(NC(=O)c2cc(-c3ccccc3)on2)cn1 (centres unmarked) [Compound 73]

The next lines start with the compound.

Compound	pIC50 (human SCD1)	pIC50 (human SCD5)
O=C(Nc1cnn(-c2ccccc2)c1)c1cc(-c2ccco2)on1 [Compound 33]	< 4.35	< 4.35
CC(C)(C)OC(=O)N1CC2(C1)CN(C(=O)c1cc(-c3ccccc3)on1)C2 [Compound 344]	< 4.35	< 4.35
O=C(c1cc(-c2ccccc2)on1)N1CCN(c2ccccc2F)CC1 [Compound 284]	< 4.35	< 4.35
Cc1nn(C)c(C)c1NC(=O)c1cc(-c2ccco2)on1 [Compound 1]	< 4.35	< 4.35
N#Cc1ccccc1-c1cc(C(=O)Nc2cnn(Cc3ccccc3)c2)no1 [Compound 135]	< 4.35	< 4.35
O=C(Nc1cnn(Cc2ccccc2)c1)c1cc(-c2cnsc2)on1 [Compound 146]	4.96	< 4.35
COc1ccc(C2CCCN2C(=O)c2cc(-c3ccc(OC)c(F)c3)on2)cc1 (centres unmarked) [Compound 382]	4.36	< 4.35
O=C(Nc1cnn(Cc2cccc(F)c2)c1)c1cc(-c2ncccc2F)on1 [Compound 108, N-(1-(3-fluorobenzyl)-1H-pyrazol-4-yl)-5-(3-fluoropyridin-2-yl)isoxazole-3-carboxamide]	5.92	5.74
O=C(c1cc(-c2ccc3c(c2)OCO3)on1)N1CC(O)C[C@H]1c1ccccc1 (some centres unmarked) [Compound 414]	4.52	< 4.35
O=C(Nc1cnn(Cc2cccnc2C(F)(F)F)c1)c1cc(-c2ccccc2F)on1 [Compound 177]	< 4.35	< 4.35
CN1CCC2(CCN(C(=O)c3cc(-c4ccccc4)on3)C2)C1 (centres unmarked) [Compound 342]	< 4.35	< 4.35
Cc1cc(C2CCCN2C(=O)c2cc(-c3ccc4c(c3)OCO4)on2)no1 (centres unmarked) [Compound 442]	< 4.35	< 4.35
Nc1cc(C(=O)Nc2cnn(Cc3ccccc3)c2)no1 [Compound 192]	< 4.35	< 4.35
CC(C)(O)c1cc(C(=O)Nc2cnn(Cc3ccccc3)c2)on1 [Compound 152]	< 4.35	< 4.35
O=C(c1cc(-c2ccc3c(c2)OCO3)on1)N1CC2(C1)CN(c1ccccc1)C2 [Compound 222]	< 4.35	< 4.35
N#Cc1ccc2c(C(=O)N3CCC[C@H]3c3ccccc3)noc2c1 [Compound 456]	< 4.35	< 4.35
C#Cc1cc(C(=O)Nc2cnn(Cc3cccc(F)c3)c2)no1 [Compound 154, 5-ethynyl-N-(1-(3-fluorobenzyl)-1H-pyrazol-4-yl)isoxazole-3-carboxamide]	5.80	5.28
O=C(Nc1cnn(Cc2ccccc2)c1)c1cc(-c2cccc(F)c2)on1 [Compound 144]	< 4.35	< 4.35
O=C(c1cc(-c2cccnc2)on1)N1CCC(c2ccccc2)CC1 [Compound 315, (4-phenylpiperidin-1-yl)(5-(pyridin-3-yl)isoxazol-3-yl)methanone, trifluoroacetic acid salt]	5.42	5.97
O=C(c1cc(-c2ccccn2)on1)N1CCC(c2ccccc2)CC1 [Compound 318]	< 4.35	4.85
Cc1nn(Cc2ccccc2)cc1NC(=O)c1cc(-c2ccccc2)on1 [Compound 66]	5.74	< 4.35
O=C(c1cc(-c2ccncc2)on1)N1CCC[C@H]1c1ccccc1 [Compound 409]	4.64	< 4.35
O=C(Nc1cnn(Cc2cccc(F)c2)c1)c1cc(-c2ccccc2)on1 [Compound 53]	7.15	< 4.35
C[S+]([O-])CC(c1ccccc1)n1cc(NC(=O)c2cc(-c3ccccc3)on2)cn1 (centres unmarked) [Compound 78]	< 4.35	< 4.35
COc1ccc(C2CCCN2C(=O)c2cc(-c3ccc4nc(N(C)C)oc4c3)on2)cc1 (centres unmarked) [Compound 399]	4.82	5.54
N#Cc1cccc(-c2cc(C(=O)N3CCC(c4ccccc4)CC3)no2)c1 [Compound 317]	< 4.35	< 4.35
O=C(c1cc(-c2ccc3c(c2)OCO3)on1)N1CCC1c1ccccc1Cl (centres unmarked) [Compound 219]	< 4.35	< 4.35
O=C(c1cc(-c2ccco2)on1)N1CC(Cc2ccccc2)C1 [Compound 205, (3-benzylazetidin-1-yl)-[5-(2-furyl)isoxazol-3-yl]methanone]	6.64	6.20
O=C(c1cc(-c2ccc3c(c2)OCO3)on1)N1CCC(c2ccccc2)CC1 [Compound 275, [5-(1,3-benzodioxol-5-yl)isoxazol-3-yl]-(4-phenyl-1-piperidyl)methanone]	< 4.35	5.95
O=C(c1cc(-c2ccccn2)on1)N1CCC(c2cccc(F)c2)C1 (centres unmarked) [Compound 352]	< 4.35	5.05
